Assay results as given in patent US20240024313A1, “BIARYL ETHER UREA COMPOUNDS” (Jazz Pharmaceuticals Ireland Limited, priority 2022, published 2024).

How the values were obtained:
[1] = target: T1, Human FAAH (Homo sapiens, UniProt O00519); test: Fluorometric-based Human FAAH Inhibition Assay; type: biochemical; conditions: recombinant human FAAH 125 nM, 1 hour preincubation, AMC Arachidonoyl Amide substrate
T1 construct: Recombinant human FAAH encoding full length amino acids were expressed in insect cells; made in house; host or cells: insect cells (baculovirus infection)
T1 sequence (O00519 1-579): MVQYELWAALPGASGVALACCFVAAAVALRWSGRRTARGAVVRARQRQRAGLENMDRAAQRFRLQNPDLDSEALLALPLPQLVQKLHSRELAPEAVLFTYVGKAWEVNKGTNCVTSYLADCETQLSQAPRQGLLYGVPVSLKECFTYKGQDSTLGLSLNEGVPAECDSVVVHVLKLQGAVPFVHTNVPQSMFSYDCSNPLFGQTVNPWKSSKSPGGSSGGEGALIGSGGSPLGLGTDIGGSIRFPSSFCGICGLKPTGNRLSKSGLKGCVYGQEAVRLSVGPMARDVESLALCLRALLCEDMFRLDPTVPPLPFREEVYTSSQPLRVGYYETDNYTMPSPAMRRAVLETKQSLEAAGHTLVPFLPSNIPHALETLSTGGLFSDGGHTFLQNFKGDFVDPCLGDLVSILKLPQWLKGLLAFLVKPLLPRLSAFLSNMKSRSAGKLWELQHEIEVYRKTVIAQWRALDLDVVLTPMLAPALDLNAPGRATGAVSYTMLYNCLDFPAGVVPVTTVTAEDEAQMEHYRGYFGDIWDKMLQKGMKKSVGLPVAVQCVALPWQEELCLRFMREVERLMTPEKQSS
Protocol: Human FAAH protein was prepared using the following method: Recombinant human FAAH encoding full length amino acids were expressed in insect cells using baculovirus infection as C-terminal (non-cleavable) 8×His tag fusion protein. Protein was supplied as cell lysate: resuspended 100,000×g pellet at 5.12 mg/ml a buffer containing 20 mM HEPES, pH 7.8, 150 mM NaCl, 1 mM EDTA, 1 mM DTT, 0.5% CHAPS. Specific activity was determined to be 844 U/mg.
Fluorometric-based Human FAAH Inhibition Assay was performed using the following method:
(§1) Assays were performed in standard-volume, black, non-binding 384-well plates (Corning #3654). All additions were carried out using the Agilent Bravo Automated Liquid Handler using an 384ST pipetting head.
(§2) FAAH reactions contained 125 nM Fatty Acid Amide Hydrolase (human, recombinant) diluted in an assay buffer containing Tris-EDTA, pH 9.0 at ambient temperature. To obtain 125 nM FAAH per well, a working stock was made at 312.5 nM by diluting 94 μL of 79.63 μM enzyme to 24 mL of assay buffer, then adding 20 μL to each well. Using the mother plates (prepared at 1000× in DMSO), the Agilent Bravo performed a 1:100 dilution step in assay buffer prior to adding 5 μL to each well for an additional 1:10 dilution.
Plates were incubated at room-temperature for 1 hour.
(§3) To initialize the reaction, a final concentration of 204 of AMC Arachidonoyl Amide was added to each well. To obtain this concentration, a working stock was made at 404 by adding 960 μL of 0.1 mM AMC stock to 24 mL of assay buffer, then 25 μL was added to each well. This stock was made at 4% DMSO for a final assay concentration contribution of 2% DMSO.
(§4) The total reaction volume per well was 50 μL. The reactions were allowed to proceed at 37° C. for 30 minutes with fluorescence monitored using a Cytation 5 Multimode imaging plate reader (BioTek Instruments) using excitation and emission wavelengths of 350/10 nm and 455/10 nm, respectively. Rates (RFU/min) were calculated from the linear portion of the reaction curves using a linear least squares curve fitting method using Gen5 v3.10. Calculated rates were then normalized to DMSO control and presented as percentages. Data were graphed and statistics were performed using GraphPad Prism v9.0.1.
Data for the Fluorometric-based Human FAAH Inhibition Assay are recited in Table 2 and in FIG. 1.

[2] = target: T2, Rat FAAH (Rattus norvegicus, UniProt P97612); test: Fluorometric-based Rat FAAH Inhibition Assay; type: biochemical; conditions: recombinant rat FAAH 20 nM, 1 hour preincubation, 2 μM AMC Arachidonoyl Amide substrate
T2 construct: truncated rat FAAH encoding amino acids residues 30-579; 6xHis (N); TEV cleavage site (N); made in house; host or cells: E. coli (pLysS cells)
T2 sequence (P97612 30-579): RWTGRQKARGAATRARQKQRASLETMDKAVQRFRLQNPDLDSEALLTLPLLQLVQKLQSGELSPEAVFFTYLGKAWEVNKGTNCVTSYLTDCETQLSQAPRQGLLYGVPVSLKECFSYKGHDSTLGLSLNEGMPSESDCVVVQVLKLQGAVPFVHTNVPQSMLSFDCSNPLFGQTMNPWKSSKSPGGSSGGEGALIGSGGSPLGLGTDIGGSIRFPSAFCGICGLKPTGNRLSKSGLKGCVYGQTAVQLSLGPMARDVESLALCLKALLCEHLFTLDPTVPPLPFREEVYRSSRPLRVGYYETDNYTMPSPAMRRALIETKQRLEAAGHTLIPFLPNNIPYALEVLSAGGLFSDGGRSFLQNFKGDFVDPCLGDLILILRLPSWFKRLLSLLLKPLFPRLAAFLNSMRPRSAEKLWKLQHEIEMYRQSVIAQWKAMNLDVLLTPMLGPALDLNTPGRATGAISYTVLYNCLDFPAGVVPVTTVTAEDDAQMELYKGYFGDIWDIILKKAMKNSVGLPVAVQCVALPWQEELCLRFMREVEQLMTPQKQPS
Protocol: Rat FAAH protein was prepared using the following method: Recombinant truncated rat FAAH encoding amino acids residues 30-579 were expressed in E. coli as NH2-terminal 6×HIS-tag and a TEV-cleavage site fusion protein. 6 L pLysS cells were induced to express FAAH. Cells were lysed and centrifuged. The insoluble pellet was resuspended using a Dounce homogenizer in CHAPS-containing buffer and allowed to stir at 4° C. for 1 hour. The resuspended pellet was then centrifuged and rat FAAH in the clarified supernatant was purified by IMAC. The purest protein fractions were pooled, and buffer exchanged into storage buffer by dialysis. The protein concentration was determined by Bradford assay aliquots were flash frozen in liquid nitrogen.
Fluorometric-based Rat FAAH Inhibition Assay was performed using the following method:
as §1
as §2, with “20” for “125”, “(rat,” for “(human,”, “50” for “312.5”, “150” for “94”, “7.93” for “79.63”
Plates were incubated at room temperature for 1 hour.
as §3, with “reaction” for “reaction,”, “2 μM” for “204”, “concentration” for “concentration,”, “4 μM” for “404”
as §4
Data for the Fluorometric-based Rat FAAH Inhibition Assay are recited in Table 2 and in FIG. 2.

[3] = Phase 1 crossover pharmacokinetic study of Compound of Formula (II) formulations in healthy adult participants; conditions: human, in vivo, oral, preliminary data; for AUC(0-t) / Cmax: 4 mg
Protocol: Partial preliminary data on Compound of Formula (II), Compound B, and Compound C) were obtained from a phase 1, single-center, open-label, randomized, 3-period, 2-sequence crossover study to characterize the PK, safety, and tolerability of Compound of Formula (II) formulations (capsule vs tablet) in healthy adult participants. In Periods 1 and 2, participants were randomized to receive 4 mg Compound of Formula (II) capsule formulation or 4 mg Compound of Formula (II) tablet formulation.
Pharmacokinetic parameters for compound of Formula (II), Compound B, and Compound C following single dose of 4 mg of compound of Formula (II) are provided in Table 3. Pharmacokinetic parameters for compound of Formula (II), Compound B, and Compound C following multiple doses of 4 mg of compound of Formula (II) are provided in Table 4.

[4] = following multiple doses of 4 mg of compound of Formula (II)
[5] = following single dose of 4 mg of compound of Formula (II)

SMILES | IC50 [1] [nM] | IC50 [2] [nM] | AUC(0-t) [3, 4] [ng·h/mL] | Cmax [3, 4] [ng/mL] | AUC(0-t) [3, 5] [ng·h/mL] | Cmax [3, 5] [ng/mL] | AUC [3, 4] [ng·h/mL] | Tmax [3, 4] [h] | half-life [3, 4] [h]
O=C(Nc1cccnn1)N1CC/C(=C\c2cccc(Oc3ccc(C(F)(F)F)cn3)c2)[C@@H](O)C1 [Compound A-RE, (R,E)-3-hydroxy-N-(pyridazin-3-yl)-4-(3-((5-(trifluoromethyl)pyridin-2-yl)oxy)benzylidene)piperidine-1-carboxamide] | 9.01 ± 0.68 | 56.8 ± 16.6 |  |  |  |  |  |  | 
O=C1CCC(NC(=O)N2CCC(=Cc3cccc(Oc4ccc(C(F)(F)F)cn4)c3)CC2)=NN1 [Compound B, N-(6-oxo-1,4,5,6-tetrahydropyridazin-3-yl)-4-(3-((5-(trifluoromethyl)pyridin-2-yl)oxy)benzylidene)piperidine-1-carboxamide] | 12.4 ± 0.89 | 85.2 ± 9.33 | 906 | 9.3 | 0.6 | 0.3 | 208 | 24 | 85
O=C(O)CCC(=O)NC(=O)N1CCC(=Cc2cccc(Oc3ccc(C(F)(F)F)cn3)c2)CC1 [Compound C, 4-oxo-4-(4-(3-((5-(trifluoromethyl)pyridin-2-yl)oxy)benzylidene)piperidine-1-carboxamido)butanoic acid] | 758 ± 11.2 | 39.6 ± 5.84 | 281 | 3.9 | 1.1 | 0.4 | 86 | 8 | 40.4
O=C(Nc1cccnn1)N1CCC(O)(C(O)c2cccc(Oc3ccc(C(F)(F)F)cn3)c2)CC1 (centres unmarked) [Compound D, 4-hydroxy-4-(hydroxy(3-((5-(trifluoromethyl)pyridin-2-yl)oxy)phenyl)methyl)-N-(pyridazin-3-yl)piperidine-1-carboxamide] | 555 ± 84.4 | 3480 ± 654 |  |  |  |  |  |  | 
FC(F)(F)c1ccc(Oc2cccc(C=C3CCNCC3)c2)nc1 [Compound E, 2-(3-(piperidin-4-ylidenemethyl)phenoxy)-5-(trifluoromethyl)pyridine] | 34400 ± 24100 |  |  |  |  |  |  |  | 

Other lines, results leading:

IC50 [1] [nM] | IC50 [2] [nM] | AUC(0-t) [3, 4] [ng·h/mL] | Cmax [3, 4] [ng/mL] | AUC(0-t) [3, 5] [ng·h/mL] | Cmax [3, 5] [ng/mL] | AUC [3, 4] [ng·h/mL] | Tmax [3, 4] [h] | half-life [3, 4] [h] | SMILES
39.3 ± 2.89 | 170 ± 43 |  |  |  |  |  |  |  | O=C(Nc1cccnn1)N1CC/C(=C/c2cccc(Oc3ccc(C(F)(F)F)cn3)c2)[C@@H](O)C1 [Compound A-RZ, (R,Z)-3-hydroxy-N-(pyridazin-3-yl)-4-(3-((5-(trifluoromethyl)pyridin-2-yl)oxy)benzylidene)piperidine-1-carboxamide]
439 ± 14.7 | 3720 ± 542 |  |  |  |  |  |  |  | O=C(Nc1cccnn1)N1CC/C(=C\c2cccc(Oc3ccc(C(F)(F)F)cn3)c2)[C@H](O)C1 [Compound A-SE, (S,E)-3-hydroxy-N-(pyridazin-3-yl)-4-(3-((5-(trifluoromethyl)pyridin-2-yl)oxy)benzylidene)piperidine-1-carboxamide]
300 ± 54.9 | 3290 ± 583 |  |  |  |  |  |  |  | O=C(Nc1cccnn1)N1CC/C(=C/c2cccc(Oc3ccc(C(F)(F)F)cn3)c2)[C@H](O)C1 [Compound A-SZ, (S,Z)-3-hydroxy-N-(pyridazin-3-yl)-4-(3-((5-(trifluoromethyl)pyridin-2-yl)oxy)benzylidene)piperidine-1-carboxamide]
3.56 ± 0.67 | 10.2 ± 1.17 | 1340 | 46.6 | 138 | 31.3 | 625 | 2 | 32.2 | O=C(Nc1cccnn1)N1CCC(=Cc2cccc(Oc3ccc(C(F)(F)F)cn3)c2)CC1 [Compound of Formula (II), reference compound]
